Measured values reported in article PMC11148772, “Inhibition of protein translational machinery in triple-negative breast cancer as a promising therapeutic strategy” (Cell Reports Medicine, 2024).

Legend:
[1] = system: MDA-MB-231, MDA-MB-468 and MCF12A cells; assay: Global proteome profiling with pathway enrichment; type: cell-based, human; settings: 1 μM, 12 h, TNBC cells vs vehicle
Procedure: MDA-MB-231, MDA-MB-468, and MCF12A cells were grown to 80% confluence and then treated with DMSO (vehicle control) or SU056 (1 μM) for 12 h. Cells were washed twice with phosphate-buffered saline (PBS), harvested by scaping, and centrifuged. Cells were lysed by vortexing in 100 mM triethylammonium bicarbonate (TEAB, Thermo Fisher Scientific) in 1% sodium dodecyl sulfate (SDS). The lysate was centrifuged, and the supernatant was retained. A bicinchoninic acid assay (BCA, Thermo Scientific, Rockville, IL) was used to measure protein concentration and 50 μg of protein per sample was subjected to disulfide bond reduction using 10 mM TCEP (Sigma Aldrich) for 1 h at 55°C. Cysteine resides were then alkylated with iodoacetamide (Sigma Aldrich) for 30 min at room temperature in the dark. […] All samples were analyzed in triplicate.
Using a Dionex Ultimate Rapid Separation Liquid Chromatography system (Thermo Fisher Scientific), a 3 μL injection of the combined TMT-labeled peptide solution was loaded onto a PepMap 100 C18 trap column (Thermo Fisher Scientific) at a rate of 5 μL/min for 10 min. […] The flow rate was set to 0.6 μL/min throughout the gradient and each sample was analyzed in triplicate. […]
Raw LC-MS/MS data was analyzed using MaxQuant[50] searching against the Swiss-Prot human reference proteome database (20,626 entries as of 2020). […]

[2] = Body weight during tumor xenograft treatment; type: in vivo, mouse; settings: 50 mg/kg
Procedure: Female NOD-Scid gamma (NSG, Homozygous for Prkdc, Hemizygous for Il2rg<tm1Wjl>) (Strain #005557) and Balb/cJ (Strain#000651) (7–8 weeks old) mice were purchased from the Jackson Laboratory and housed under standard laboratory conditions. The Institutional Animal Care & Use Program of Oregon Health and Science University approved the protocol (#IP00003247). MDA-MB-231 (3 x 10^6), MDA-MB-468 (5 x 10^6), 4T1 (1 x 10^5) and EMT6 (1 x 10^5) cells were suspended in 100 μL of 1x PBS and injected subcutaneously in each mouse. Tumor growth was monitored regularly and once the tumors reached approximately around 50–100 mm^3, treatment with SU056 (50 mg/kg body weight given by oral gavage, 5 days per week) was started. Tumor size and body weight were measured once a week. At the end of treatment, mice were euthanized via deep anesthesia followed by cervical dislocation. Tumors were excised and weighed. Tumor samples were processed for immunoblotting for different markers.
Data S2. Effect of SU056 treatment on body weight, metastatic potential and pharmacokinetic profiling of SU056, related to Figure 2 and 3
Human, mouse and PDX models of TNBC were used for tumor xenograft studies. SU056 treatment was started when tumors reached around ~25-50 mm3 and continued until the experiment reached its 3-week endpoint. Body weight was monitored throughout the study to understand any change in dietary pattern. […]

O=C1OCC2=C1C(c1cccc(F)c1)c1cc3c(cc1N2CCO)OCO3 (stereo not drawn) [SU056, 9-(3-fluorophenyl)-5-(2-hydroxyethyl)-6,9-dihydro-[1,3]dioxolo[4,5-g]furo[3,4-b]quinolin-8(5H)-one]
protein translation processes (proteomic pathway analysis) [1]: modulated
body weight of animals throughout treatment ([2]; MDA-MB-231, MDA-MB-468, 4T1, EMT6 models): remained the same
body weight of animals throughout treatment ([2]; PDX models): remained the same
